Entries after “also recorded” stand apart in the source; their conditions may differ.
How the values were obtained:
TAS2R5 = target: T1, TAS2R5 (Homo sapiens, UniProt Q9NYW4); test: Calcium mobilization functional assay, TAS2R5; format: cell-based; details: 1 mM, versus empty pcDNA vector
T1 construct: first 45 amino acids of rat somatostatin type 3 receptor (SSTR3) export tag (N); expressed in transfected cells; host or cells: HEK293E
Description: (§1) All constructs were confirmed by DNA sequencing.
(§2) Data from single dose experiments were collected as duplicates. […] Data represent mean ± SD.

25 human TAS2Rs = test: Single dose scanning of phenolic compounds on the 25 bitter taste receptors (calcium mobilization, HEK293E); format: cell-based; details: single dose 300 µM, 25 TAS2Rs, N = 2
Experimental: as §1, §2
(§3) To characterize the bitterness of olive oil phenolic compounds, we performed calcium mobilization experiments. The 25 bitter taste receptors, G protein chimera (Gα16-gus44), and the GCaMP calcium sensor[68] were transiently expressed in HEK293E cells. Twelve olive oil phenolic compounds (Fig. 1) were tested for bitter taster receptor activation (Fig. 3). […] Ligstroside aglycon, and Oleuropein aglycon activated TAS2R1, TAS2R8 and TAS2R14 receptors. To validate the single dose scanning results, we performed concentration–response experiments for all the compounds toward receptors TAS2R1, TAS2R8, and TAS2R14 that produced the most significant responses (Fig. 4).
Figure 3 Phenolic compound bitter taste activity tests on hTAS2Rs. Relative fluorescence signals caused by phenolic compound activation of the receptors and the empty vector as a negative control. The concentration of the compounds used was [300 µM], except for Ligstroside aglycon and Oleuropein aglycon [200 µM], oleuropein that was [3 mM]. The asterisks indicate significant differences tested by one-way ANOVA (***p < 0.0001) (N = 2). Data represent mean ± SD.

TRPA1 receptor/channels = test system: TRPA1 receptor/channels; design: method as in PMID 21248124; details: cited from earlier work
TAS2R38 = TAS2R38 (Homo sapiens, UniProt P59533); details: 1 mM, versus empty pcDNA vector
TAS2R38, sequence (P59533 whole entry): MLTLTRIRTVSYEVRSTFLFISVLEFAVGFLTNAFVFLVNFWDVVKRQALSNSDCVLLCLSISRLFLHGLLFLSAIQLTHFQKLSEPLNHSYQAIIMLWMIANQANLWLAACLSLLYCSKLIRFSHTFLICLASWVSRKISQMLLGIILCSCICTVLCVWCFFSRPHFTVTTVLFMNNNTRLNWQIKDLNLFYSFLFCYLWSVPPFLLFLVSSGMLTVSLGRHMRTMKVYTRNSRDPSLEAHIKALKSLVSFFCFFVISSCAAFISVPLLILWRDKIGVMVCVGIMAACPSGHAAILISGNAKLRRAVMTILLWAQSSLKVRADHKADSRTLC
Experimental: (§4) 25 human TAS2R genes were subcloned into the pcDNA 3.1 vector, as previously descripted in the literature[44],[53]. The first 45 amino acids of the rat somatostatin type 3 receptor, which serves as a cell-surface-targeting signal, were added to the N-termini of the TAS2Rs to target them more efficiently to the cell surface. Herpes simplex virus (HSV) glycoprotein D epitopes were added to the carboxy termini of the receptors for immunocytochemistry. All constructs were confirmed by DNA sequencing.
(§5) HEK293E cells were cultured at 37 °C in DMEM (Thermo Fisher Scientific), supplemented with 10% fetal bovine serum (FBS) and 1% Penicillin Streptomycin. The cells were seeded onto 96-well plates (Clear Bottom Black Polystyrene Poly-D-Lysine Coated Microplates, Corning life sciences) at a density of 50,000 (in 100 μl DMEM) per well, and cultured at 37 °C for overnight. On the second day following seeding, the medium was changed to OPTI-MEM supplemented with 5% FBS (filtered) before co-transfection using Polyethylenimine (PEI) (1.6 μg/well) with plasmid DNAs encoding TAS2Rs (0.1 μg/well), Gα16-gust44 (0.06 μg/well) and the GCaMP calcium sensor (0.035 μg/well). After 24 h, the medium was changed to fresh OPTI-MEM supplemented with 5% FBS (filtered) and 0.1% Plasmocin (InvivoGen). […]

TAS2R50 = target: T2, TAS2R50 (Homo sapiens, UniProt P59544); test: Calcium mobilization functional assay, TAS2R50; format: cell-based; details: 1 mM, versus empty pcDNA vector
T2 construct: first 45 amino acids of rat somatostatin type 3 receptor (SSTR3) export tag (N); expressed in transfected cells; host or cells: HEK293E
T2 sequence (P59544 whole entry): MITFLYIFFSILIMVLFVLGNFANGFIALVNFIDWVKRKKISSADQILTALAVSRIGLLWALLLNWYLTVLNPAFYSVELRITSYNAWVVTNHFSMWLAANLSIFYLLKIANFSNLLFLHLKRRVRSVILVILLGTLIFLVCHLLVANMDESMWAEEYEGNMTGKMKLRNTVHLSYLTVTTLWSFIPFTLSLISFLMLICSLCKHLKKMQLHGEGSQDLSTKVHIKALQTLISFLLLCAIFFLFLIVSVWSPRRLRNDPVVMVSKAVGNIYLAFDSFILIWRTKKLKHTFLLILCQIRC
Description: as §1, §2

TAS2R31 = target: T3, TAS2R31 (Homo sapiens, UniProt P59538); test: Calcium mobilization functional assay, TAS2R31; format: cell-based; details: 30 µM, versus empty pcDNA vector
T3 construct: first 45 amino acids of rat somatostatin type 3 receptor (SSTR3) export tag (N); expressed in transfected cells; host or cells: HEK293E
T3 sequence (P59538 whole entry): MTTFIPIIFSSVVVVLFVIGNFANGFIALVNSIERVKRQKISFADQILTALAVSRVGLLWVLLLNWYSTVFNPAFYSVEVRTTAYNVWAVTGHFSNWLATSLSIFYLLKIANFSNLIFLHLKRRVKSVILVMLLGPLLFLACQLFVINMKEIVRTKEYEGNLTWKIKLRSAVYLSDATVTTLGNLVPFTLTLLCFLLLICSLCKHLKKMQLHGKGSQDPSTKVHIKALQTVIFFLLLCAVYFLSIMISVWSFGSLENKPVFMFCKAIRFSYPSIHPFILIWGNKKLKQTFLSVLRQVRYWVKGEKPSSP
Description: as §1, §2

TAS2R43 = target: T4, TAS2R43 (Homo sapiens, UniProt P59537); test: Calcium mobilization functional assay, TAS2R43; format: cell-based; details: 30 µM, versus empty pcDNA vector
T4 construct: first 45 amino acids of rat somatostatin type 3 receptor (SSTR3) export tag (N); expressed in transfected cells; host or cells: HEK293E
T4 sequence (P59537 whole entry): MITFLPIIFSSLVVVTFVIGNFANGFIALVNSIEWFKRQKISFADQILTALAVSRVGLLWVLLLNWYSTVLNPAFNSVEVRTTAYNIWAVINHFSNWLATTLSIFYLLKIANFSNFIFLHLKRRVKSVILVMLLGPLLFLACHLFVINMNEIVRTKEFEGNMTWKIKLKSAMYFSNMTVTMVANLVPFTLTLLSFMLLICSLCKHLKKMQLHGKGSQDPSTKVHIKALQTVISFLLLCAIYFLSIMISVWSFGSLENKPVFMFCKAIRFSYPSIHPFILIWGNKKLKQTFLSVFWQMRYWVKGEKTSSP
Description: as §1, §2

TAS2R1 = target: T5, TAS2R1 (Homo sapiens, UniProt Q9NYW7); test: Calcium mobilization functional assay, TAS2R1 co-expressed with Gα16-gust44 and GCaMP in HEK293E cells; format: cell-based; details: 1 mM, versus empty pcDNA vector
T5 construct: first 45 amino acids of rat somatostatin type 3 receptor (SSTR3) export tag (N); expressed in transfected cells; host or cells: HEK293E
T5 sequence (Q9NYW7 1-299): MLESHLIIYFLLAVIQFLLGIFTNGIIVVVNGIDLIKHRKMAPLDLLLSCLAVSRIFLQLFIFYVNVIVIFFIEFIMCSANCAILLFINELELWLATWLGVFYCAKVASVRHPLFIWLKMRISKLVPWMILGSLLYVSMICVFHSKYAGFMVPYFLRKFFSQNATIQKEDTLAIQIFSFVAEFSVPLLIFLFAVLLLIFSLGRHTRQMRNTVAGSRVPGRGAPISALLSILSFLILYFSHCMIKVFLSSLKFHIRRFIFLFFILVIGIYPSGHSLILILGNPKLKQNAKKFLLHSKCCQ
Experimental: as §1, §2, §3

TAS2R41 = target: T6, TAS2R41 (Homo sapiens, UniProt P59536); test: Calcium mobilization functional assay, TAS2R41; format: cell-based; details: 1 mM, versus empty pcDNA vector
T6 construct: first 45 amino acids of rat somatostatin type 3 receptor (SSTR3) export tag (N); expressed in transfected cells; host or cells: HEK293E
T6 sequence (P59536 whole entry): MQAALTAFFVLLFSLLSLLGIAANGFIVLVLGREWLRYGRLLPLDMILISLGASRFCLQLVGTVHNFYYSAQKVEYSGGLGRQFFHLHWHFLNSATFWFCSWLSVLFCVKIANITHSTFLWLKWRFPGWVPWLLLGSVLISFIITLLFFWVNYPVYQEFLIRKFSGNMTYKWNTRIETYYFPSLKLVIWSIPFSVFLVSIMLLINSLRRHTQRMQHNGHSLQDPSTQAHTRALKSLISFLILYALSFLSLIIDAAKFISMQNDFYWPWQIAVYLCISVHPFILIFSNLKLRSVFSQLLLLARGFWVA
Description: as §1, §2

TAS2R8 = target: T7, TAS2R8 (Homo sapiens, UniProt Q9NYW2); test: Calcium mobilization functional assay, TAS2R8 co-expressed with Gα16-gust44 and GCaMP in HEK293E cells; format: cell-based; details: 1 mM, versus empty pcDNA vector
T7 construct: first 45 amino acids of rat somatostatin type 3 receptor (SSTR3) export tag (N); expressed in transfected cells; host or cells: HEK293E
T7 sequence (Q9NYW2 1-309): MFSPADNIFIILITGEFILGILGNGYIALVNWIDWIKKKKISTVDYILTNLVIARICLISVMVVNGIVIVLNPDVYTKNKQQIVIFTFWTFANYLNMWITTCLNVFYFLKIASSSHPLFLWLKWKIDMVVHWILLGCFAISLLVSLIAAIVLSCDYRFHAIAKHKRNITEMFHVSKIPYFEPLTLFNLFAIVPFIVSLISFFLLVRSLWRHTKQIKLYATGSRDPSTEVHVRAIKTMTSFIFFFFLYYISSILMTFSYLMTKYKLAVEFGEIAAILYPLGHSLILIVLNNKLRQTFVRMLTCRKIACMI
Experimental: as §1, §2, §3

TAS2R3 = target: T8, TAS2R3 (Homo sapiens, UniProt Q9NYW6); test: Calcium mobilization functional assay, TAS2R3; format: cell-based; details: 10 mM, versus empty pcDNA vector
T8 construct: first 45 amino acids of rat somatostatin type 3 receptor (SSTR3) export tag (N); expressed in transfected cells; host or cells: HEK293E
T8 sequence (Q9NYW6 whole entry): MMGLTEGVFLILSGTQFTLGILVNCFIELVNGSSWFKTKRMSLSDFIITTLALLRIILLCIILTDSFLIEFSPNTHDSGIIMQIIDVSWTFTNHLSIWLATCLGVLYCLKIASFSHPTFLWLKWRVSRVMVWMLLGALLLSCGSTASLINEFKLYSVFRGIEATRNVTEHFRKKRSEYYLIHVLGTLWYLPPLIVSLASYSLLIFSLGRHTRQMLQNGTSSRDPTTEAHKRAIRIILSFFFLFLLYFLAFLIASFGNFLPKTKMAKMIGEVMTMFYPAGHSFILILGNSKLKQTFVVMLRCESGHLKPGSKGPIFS
Description: as §1, §2

TAS2R7 = target: T9, TAS2R7 (Homo sapiens, UniProt Q9NYW3); test: Calcium mobilization functional assay, TAS2R7; format: cell-based; details: 10 mM, versus empty pcDNA vector
T9 construct: first 45 amino acids of rat somatostatin type 3 receptor (SSTR3) export tag (N); expressed in transfected cells; host or cells: HEK293E
T9 sequence (Q9NYW3 whole entry): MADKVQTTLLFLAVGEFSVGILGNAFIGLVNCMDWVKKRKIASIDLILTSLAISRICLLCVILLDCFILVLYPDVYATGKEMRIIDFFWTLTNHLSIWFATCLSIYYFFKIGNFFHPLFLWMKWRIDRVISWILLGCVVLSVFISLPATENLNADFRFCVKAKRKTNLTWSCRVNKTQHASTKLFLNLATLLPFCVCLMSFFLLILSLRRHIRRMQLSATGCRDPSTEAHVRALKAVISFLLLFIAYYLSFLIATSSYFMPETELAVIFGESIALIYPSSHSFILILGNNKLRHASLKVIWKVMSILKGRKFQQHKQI
Description: as §1, §2

TAS2R20 = target: T10, TAS2R20 (Homo sapiens, UniProt P59543); test: Calcium mobilization functional assay, TAS2R20 (RTP3 and RTP4 co-expressed); format: cell-based; details: 10 mM, versus empty pcDNA vector
T10 construct: first 45 amino acids of rat somatostatin type 3 receptor (SSTR3) export tag (N); expressed in transfected cells; host or cells: HEK293E
T10 sequence (P59543 whole entry): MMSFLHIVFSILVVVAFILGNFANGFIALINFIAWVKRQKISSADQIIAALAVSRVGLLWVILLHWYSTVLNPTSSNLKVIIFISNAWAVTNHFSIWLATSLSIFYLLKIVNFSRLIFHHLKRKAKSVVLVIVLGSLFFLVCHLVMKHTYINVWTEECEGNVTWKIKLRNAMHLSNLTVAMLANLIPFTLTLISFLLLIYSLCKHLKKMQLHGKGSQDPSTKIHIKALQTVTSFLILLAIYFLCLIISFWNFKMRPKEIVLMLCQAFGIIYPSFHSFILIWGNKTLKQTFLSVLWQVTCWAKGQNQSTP
Description: as §1, §2

TAS2R10 = target: T11, TAS2R10 (Homo sapiens, UniProt Q9NYW0); test: Calcium mobilization functional assay, TAS2R10; format: cell-based; details: 30 µM, versus empty pcDNA vector
T11 construct: first 45 amino acids of rat somatostatin type 3 receptor (SSTR3) export tag (N); expressed in transfected cells; host or cells: HEK293E
Description: as §1, §2

TAS2R30 = target: T12, TAS2R30 (Homo sapiens, UniProt P59541); test: Calcium mobilization functional assay, TAS2R30; format: cell-based; details: 300 µM, versus empty pcDNA vector
T12 construct: first 45 amino acids of rat somatostatin type 3 receptor (SSTR3) export tag (N); expressed in transfected cells; host or cells: HEK293E
T12 sequence (P59541 whole entry): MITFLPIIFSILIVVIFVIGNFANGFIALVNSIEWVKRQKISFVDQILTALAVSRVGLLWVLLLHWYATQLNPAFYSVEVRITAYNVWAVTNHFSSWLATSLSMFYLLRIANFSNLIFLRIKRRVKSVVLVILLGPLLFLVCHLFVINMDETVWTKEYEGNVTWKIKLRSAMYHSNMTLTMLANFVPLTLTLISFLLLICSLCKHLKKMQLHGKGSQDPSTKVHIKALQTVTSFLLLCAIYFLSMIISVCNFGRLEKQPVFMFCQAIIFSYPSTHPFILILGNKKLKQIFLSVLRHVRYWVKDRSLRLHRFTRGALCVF
Description: as §1, §2

TAS2R40 = target: T13, TAS2R40 (Homo sapiens, UniProt P59535); test: Calcium mobilization functional assay, TAS2R40; format: cell-based; details: 30 µM, versus empty pcDNA vector
T13 construct: first 45 amino acids of rat somatostatin type 3 receptor (SSTR3) export tag (N); expressed in transfected cells; host or cells: HEK293E
T13 sequence (P59535 whole entry): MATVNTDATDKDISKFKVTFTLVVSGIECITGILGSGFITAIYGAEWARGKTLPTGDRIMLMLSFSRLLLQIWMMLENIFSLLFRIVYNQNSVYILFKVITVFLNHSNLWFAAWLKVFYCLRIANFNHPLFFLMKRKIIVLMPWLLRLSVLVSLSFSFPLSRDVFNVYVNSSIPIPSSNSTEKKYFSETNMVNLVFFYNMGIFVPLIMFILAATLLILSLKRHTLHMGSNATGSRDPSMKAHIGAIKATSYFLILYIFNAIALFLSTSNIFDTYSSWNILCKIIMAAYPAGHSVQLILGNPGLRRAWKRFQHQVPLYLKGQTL
Description: as §1, §2

TAS2R13 = target: T14, TAS2R13 (Homo sapiens, UniProt Q9NYV9); test: Calcium mobilization functional assay, TAS2R13; format: cell-based; details: 10 mM, versus empty pcDNA vector
T14 construct: first 45 amino acids of rat somatostatin type 3 receptor (SSTR3) export tag (N); expressed in transfected cells; host or cells: HEK293E
Description: as §1, §2

TAS2R9 = target: T15, TAS2R9 (Homo sapiens, UniProt Q9NYW1); test: Calcium mobilization functional assay, TAS2R9; format: cell-based; details: 20 mM, versus empty pcDNA vector
T15 construct: first 45 amino acids of rat somatostatin type 3 receptor (SSTR3) export tag (N); expressed in transfected cells; host or cells: HEK293E
T15 sequence (Q9NYW1 whole entry): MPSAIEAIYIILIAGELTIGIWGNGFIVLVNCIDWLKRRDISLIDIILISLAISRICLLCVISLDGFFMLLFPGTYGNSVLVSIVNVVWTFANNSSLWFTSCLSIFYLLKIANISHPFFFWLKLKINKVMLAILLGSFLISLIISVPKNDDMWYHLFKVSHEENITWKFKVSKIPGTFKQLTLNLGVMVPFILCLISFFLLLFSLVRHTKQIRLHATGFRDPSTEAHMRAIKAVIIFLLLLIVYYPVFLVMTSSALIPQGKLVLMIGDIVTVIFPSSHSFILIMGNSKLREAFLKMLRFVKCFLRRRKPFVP
Description: as §1, §2

TAS2R39 = target: T16, TAS2R39 (Homo sapiens, UniProt P59534); test: Calcium mobilization functional assay, TAS2R39; format: cell-based; details: 10 mM, versus empty pcDNA vector
T16 construct: first 45 amino acids of rat somatostatin type 3 receptor (SSTR3) export tag (N); expressed in transfected cells; host or cells: HEK293E
T16 sequence (P59534 whole entry): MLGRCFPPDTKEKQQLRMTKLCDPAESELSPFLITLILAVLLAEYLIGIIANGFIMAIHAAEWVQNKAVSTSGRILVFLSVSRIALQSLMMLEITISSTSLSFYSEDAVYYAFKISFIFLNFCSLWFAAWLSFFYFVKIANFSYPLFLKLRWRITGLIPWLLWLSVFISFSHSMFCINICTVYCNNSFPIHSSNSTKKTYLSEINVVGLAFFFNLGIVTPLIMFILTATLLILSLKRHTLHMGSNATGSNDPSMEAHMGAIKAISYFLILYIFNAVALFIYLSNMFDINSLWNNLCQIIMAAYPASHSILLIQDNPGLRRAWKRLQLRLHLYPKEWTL
Description: as §1, §2

TAS2R16 = target: T17, TAS2R16 (Homo sapiens, UniProt Q9NYV7); test: Calcium mobilization functional assay, TAS2R16; format: cell-based; details: 10 mM, versus empty pcDNA vector
T17 construct: first 45 amino acids of rat somatostatin type 3 receptor (SSTR3) export tag (N); expressed in transfected cells; host or cells: HEK293E
T17 sequence (Q9NYV7 whole entry): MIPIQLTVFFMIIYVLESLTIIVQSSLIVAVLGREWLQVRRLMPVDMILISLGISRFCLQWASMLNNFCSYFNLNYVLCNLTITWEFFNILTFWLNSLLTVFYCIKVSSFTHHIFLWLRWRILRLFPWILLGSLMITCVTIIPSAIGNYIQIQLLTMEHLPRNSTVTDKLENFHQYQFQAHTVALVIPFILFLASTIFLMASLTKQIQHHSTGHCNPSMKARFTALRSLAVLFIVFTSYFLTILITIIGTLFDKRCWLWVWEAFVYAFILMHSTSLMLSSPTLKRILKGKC
Description: as §1, §2

TAS2R46 = TAS2R46 (Homo sapiens, UniProt P59540); details: 300 µM, versus empty pcDNA vector
TAS2R46, sequence (P59540 whole entry): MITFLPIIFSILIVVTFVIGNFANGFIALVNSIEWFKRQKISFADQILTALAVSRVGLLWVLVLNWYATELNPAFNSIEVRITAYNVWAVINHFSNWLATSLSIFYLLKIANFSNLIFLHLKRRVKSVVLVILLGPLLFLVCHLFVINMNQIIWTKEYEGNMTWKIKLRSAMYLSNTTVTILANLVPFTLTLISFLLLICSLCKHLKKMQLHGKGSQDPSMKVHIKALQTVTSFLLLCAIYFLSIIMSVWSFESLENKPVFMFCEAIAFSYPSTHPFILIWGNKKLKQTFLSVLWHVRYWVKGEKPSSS
Experimental: as §4, §5

T1 sequence (Q9NYW4 whole entry): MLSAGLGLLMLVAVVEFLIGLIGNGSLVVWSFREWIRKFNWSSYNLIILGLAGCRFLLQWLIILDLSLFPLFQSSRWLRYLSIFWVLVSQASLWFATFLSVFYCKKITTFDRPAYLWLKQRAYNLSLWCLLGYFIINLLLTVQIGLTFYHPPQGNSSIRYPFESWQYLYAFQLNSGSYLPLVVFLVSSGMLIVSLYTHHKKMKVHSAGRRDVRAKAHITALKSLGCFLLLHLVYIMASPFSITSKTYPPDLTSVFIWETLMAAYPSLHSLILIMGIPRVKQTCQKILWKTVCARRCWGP

c1cnc2c(c1)ccc1cccnc12 [1,10-phenanthroline]
activation of TAS2R5 (TAS2R5): activated

C/C=C(/C=O)[C@@H](CC=O)CC(=O)OCCc1ccc(O)cc1 [Oleocanthal, oleocanthal]
activation of any TAS2R (25 human TAS2Rs): did not activate any TAS2Rs
activation of any TAS2R (25 human TAS2Rs; listed as oleocanthal): did not show any activation of bitter receptors; also recorded: failed to activate any TAS2Rs
activation of TRPA1 receptor/channels (TRPA1 receptor/channels): activates

CCCc1cc(=O)[nH]c(=S)[nH]1 [PROP, 6-n-propylthiouracil]
activation of TAS2R38 (TAS2R38): activated

C=C1CC[C@@H]2[C@](C)(CO)[C@H](O)CC[C@@]2(C)[C@@H]1C/C=C1/C(=O)OC[C@H]1O [andrographolide]
activation of TAS2R50 (TAS2R50): activated

COc1cccc2c1cc([N+](=O)[O-])c1c(C(=O)O)cc3c(c12)OCO3 [aristolochic acid]
activation of TAS2R31 (TAS2R31): activated
activation of TAS2R43 (TAS2R43): activated

O=C(N[C@H](CO)[C@H](O)c1ccc([N+](=O)[O-])cc1)C(Cl)Cl [chloramphenicol, reference compound]
activation of TAS2R1 (TAS2R1): activated
activation of TAS2R41 (TAS2R41): activated
activation of TAS2R8 (TAS2R8): activated

CCN(CC)CCCC(C)Nc1ccnc2cc(Cl)ccc12 (stereo not shown) [chloroquine]
activation of TAS2R3 (TAS2R3): activated
activation of TAS2R7 (TAS2R7): activated

O=C(O)c1cc(=O)c2c(OCC(O)COc3cccc4oc(C(=O)O)cc(=O)c34)cccc2o1 [cromolyn]
activation of TAS2R20 (TAS2R20): activated

CC(=O)OC(C)(C)/C=C/C(=O)[C@](C)(O)[C@H]1[C@H](O)C[C@@]2(C)[C@@H]3CC=C4[C@@H](C=C(O)C(=O)C4(C)C)[C@]3(C)C(=O)C[C@]12C [cucurbitacin E]
activation of TAS2R10 (TAS2R10): activated

CC[N+](CC)(CC(=O)Nc1c(C)cccc1C)Cc1ccccc1 [denatonium, denatonium benzoate]
activation of TAS2R30 (TAS2R30): activated

CC(C)=CCC1C(=O)C(C(=O)CC(C)C)=C(O)C(O)(CC=C(C)C)C1=O (stereo not shown) [humulone]
activation of TAS2R40 (TAS2R40): activated

CC[N+](C)(CC)CCOC(=O)C(O)(c1ccccc1)C1CCCCC1 (stereo not shown) [oxyphenonium]
activation of TAS2R13 (TAS2R13): activated

CCN(CC)CCNC(=O)c1ccc(N)cc1 [procainamide]
activation of TAS2R9 (TAS2R9): activated

CNC(=C[N+](=O)[O-])NCCSCc1ccc(CN(C)C)o1 [ranitidine]
activation of TAS2R39 (TAS2R39): activated

OCc1ccccc1O[C@@H]1O[C@H](CO)[C@@H](O)[C@H](O)[C@H]1O [salicin]
activation of TAS2R16 (TAS2R16): activated

O=C1C[C@@H]2OCC=C3CN4CC[C@]56c7ccccc7N1[C@H]5[C@H]2[C@H]3C[C@H]46 [strychnine]
activation of TAS2R46 (TAS2R46): activated

Source: paper PMC8595653, “Activation of specific bitter taste receptors by olive oil phenolics and secoiridoids” (Scientific Reports, 2021)
